From ChEMBL document CHEMBL1157778, “Frontal affinity chromatography-mass spectrometry useful for characterization of new ligands for GPR17 receptor” (J Med Chem, 2010) come the findings set out here.

Holding throughout (type): functional, cell-based
In experiment [1] the target is T1, Uracil nucleotide/cysteinyl leukotriene receptor (Homo sapiens, UniProt Q13304). The experiment is described as follows: Agonist activity at human GPR17 expressed in human 1321N1 cells assessed as induction of [35S]GTPgammaS binding after 30 mins by rapid filtration assay.
For experiment [2], the target named is T1, Uracil nucleotide/cysteinyl leukotriene receptor. As to the kind of experiment: Antagonist activity at human GPR17 expressed in human 1321N1 cells assessed as inhibition of UDP-glucose-induced [35S]GTPgammaS binding after 30 mins by rapid filtration assay.
Experiment [3] can be described thus: Antagonist activity at human GPR17 R255I mutant expressed in human 1321N1 cells assessed as inhibition of UDP-glucose-induced [35S]GTPgammaS binding after 30 mins by rapid filtration assay.
Experiment [4] in a line: Agonist activity at human GPR17 R255I mutant expressed in human 1321N1 cells assessed as induction of [35S]GTPgammaS binding after 30 mins by rapid filtration assay.

The structures appear in SMILES notation.

T1 sequence (Q13304 whole entry): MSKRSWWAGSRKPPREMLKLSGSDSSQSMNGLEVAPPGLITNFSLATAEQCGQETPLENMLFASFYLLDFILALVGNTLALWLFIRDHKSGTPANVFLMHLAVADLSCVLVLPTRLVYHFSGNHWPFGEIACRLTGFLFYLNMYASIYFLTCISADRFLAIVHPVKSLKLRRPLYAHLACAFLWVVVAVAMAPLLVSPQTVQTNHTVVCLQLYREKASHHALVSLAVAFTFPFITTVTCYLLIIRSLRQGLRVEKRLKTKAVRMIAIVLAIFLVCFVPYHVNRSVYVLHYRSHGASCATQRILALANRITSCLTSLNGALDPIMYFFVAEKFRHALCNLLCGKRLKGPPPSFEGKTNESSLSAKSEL

`CNc1nc(Cl)nc2c1ncn2[C@@H]1O[C@H](COP(=O)(O)OP(=O)(O)OP(=O)(O)O)[C@@H](O)[C@H]1O`: the EC50 in experiment [1] was 11 nM. On to `CNc1nc(Cl)cc2c1ncn2[C@@H]1O[C@H](COP(=O)(O)OP(=O)(O)OP(=O)(O)O)[C@@H](O)[C@H]1O`, for which the EC50 in experiment [1] stood at 1.7 nM.

In the case of `CNc1ncnc2c1ncn2[C@H]1C[C@H](OP(=O)(O)O)[C@@H](COP(=O)(O)O)O1`, the IC50 came to 508 nM in experiment [2] and 227 nM in experiment [3]. Consider `Nc1nc(Cl)nc2c1ncn2[C@H]1C[C@H](OP(=O)(O)O)[C@@H](COP(=O)(O)O)O1`, for which the IC50 in experiment [2] was found to be 582 nM.

Take `O=c1[nH]c(=O)n([C@@H]2O[C@H](COP(=O)(O)OP(=O)(O)O)[C@@H](O)[C@H]2O)cc1I`: the EC50 in experiment [1] stood at 945 nM; in experiment [4] it was 1870 nM. As for `O=P(O)(O)OP(=O)(O)OP(=O)(O)OC[C@H]1O[C@@H](n2cnc3c(NC4CCCC4)ncnc32)[C@H](O)[C@@H]1O`, the EC50 in experiment [1] stood at 1.4 nM. For the compound `Nc1nc(C#Cc2ccccc2)nc2c1ncn2[C@@H]1O[C@H](COP(=O)(O)OP(=O)(O)OP(=O)(O)O)[C@@H](O)[C@H]1O`, the EC50 in experiment [1] came to 0.036 nM; in experiment [4], 0.0254 nM.

In the case of `CNc1ncnc2c1ncn2[C@@H]1O[C@H](COP(=O)(O)OP(=O)(O)OP(=O)(O)O)[C@@H](O)[C@H]1O`, the IC50 in experiment [2] was found to be 112 nM.
